Measured values reported in patent publication US8969363B2, “Heterocyclic compounds and uses thereof” (Infinity Pharmaceuticals, Inc., priority 2011, dated 2015).
Like-named read-outs stand apart in the source and are kept apart here.

Key:
[1] = test system: phospho-AKT in RAJI cells (PI3Kδ); assay: PI3Kδ selective cellular assay: phospho-AKT in anti-human IgM stimulated RAJI cells; format: cell-based; conditions: read-out: IC50 for phospho-AKT, RAJI cell model
Excerpt: A compound's ability in selectively inhibiting PI3Kδ can be assessed using RAJI cells, i.e., B lymphocyte cells derived from lymphoma patients. Briefly, serum-starved RAJI cells are stimulated with anti-human IgM, thereby causing signaling through the B-cell receptors, as described in, for example, He et al., Leukemia Research (2009) 33: 798-802. B-cell receptor signaling is important for the activation, differentiation, and survival of B cells and certain B-cell derived cancers. Reduction of phospho-AKT is indicative of compounds that may inhibit B-cell proliferation and function in certain diseases. By monitoring the reduction of phospho-AKT in stimulated RAJI cells (using for example, phospho-AKT antibodies), a compound's potential efficacy in selectively inhibiting PI3Kδ can be assessed.
Certain compounds provided herein (e.g., Compounds I-21, I-86, I-87, I-91, I-106, and III-13) were tested in RAJI cell model using procedures as described above.

[2] = test system: phospho-AKT in 786-O cells (PI3Kβ); assay: PI3Kβ selective cellular assay: phospho-AKT in 786-O cells; format: cell-based; conditions: Homo sapiens, 786-0, read-out: IC50 for phospho-AKT, 786-O cell model
Excerpt: A compound's ability in selectively inhibiting PI3Kβ can be assessed using 786-O cells, i.e., human kidney carcinoma cell line. Briefly, 786-O cells, in which PI3Kβ is constitutively active, can be treated with test compounds. Test compounds' ability to inhibit AKT phosphorylation in 786-O cells, therefore, is indicative of selective inhibition of PI3Kβ. Thus, by monitoring the reduction of phospho-AKT in 786-O cells (using for example, phospho-AKT antibodies), a compound's potential efficacy in selectively inhibiting PI3Kβ can be assessed.
Certain compounds provided herein (e.g., Compounds I-21, I-86, I-87, I-91, and III-13) were tested in 786-O cell model using procedures as described above.

[3] = test system: phospho-AKT in RAW 264.7 cells (PI3Kγ); assay: PI3Kγ selective cellular assay: phospho-AKT in C5a stimulated RAW 264.7 cells; format: cell-based; conditions: Mus musculus
Excerpt: A compound's ability in selectively inhibiting PI3Kγ can be assessed using RAW264.7 macrophages. Briefly, serum-starved PAW264.7 cells are stimulated with a known GPCR agonist C5a. (See, e.g., Camps et al., Nature Medicine (2005) 11(9): 936-943). Cells can be treated with test compounds prior to, simultaneously with, or subsequent to the stimulation by C5a. RAW 264.7 cells respond to the complement component fragment C5a through activation of the C5a receptor, and the C5a receptor activates macrophages and induces cell migration. Test compounds' ability to inhibit C5a-mediated AKT phosphorylation is indicative of selective inhibition of PI3Kγ. Thus, by monitoring the reduction of phospho-AKT in stimulated RAW 264.7 cells (using for example, phospho-AKT antibodies), a compound's potential efficacy in selectively inhibiting PI3Kγ can be assessed.
Certain compounds provided herein (e.g., Compounds I-21, I-86, I-87, I-91, I-106, and III-13) were tested in RAW 264.7 cell model using procedures as described above.

PI3Kβ = assay: PI3 Kinase HTRF assay, PI3Kβ; format: biochemical, human; conditions: 10 μM PIP2, 10 μM ATP; 'Greater than 10 μM' and 'Greater than 1 μM to 10 μM'; read-out: PI3K β IC50
Outline: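 Recombinant PI3Kβ converting PIP2 (10 μM) to PIP3 with 10 μM ATP; PIP3 detected by competitive HTRF displacement of biotin-PIP3/GST-GRP1 PH domain complex. Emission ratios converted to % inhibition; IC50 by nonlinear regression.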

[4] = test system: phospho-AKT in SKOV-3 cells (PI3Kα); assay: PI3Kα selective cellular assay: phospho-AKT in SKOV-3 cells; format: cell-based; conditions: Homo sapiens
Excerpt: A compound's ability in selectively inhibiting PI3Kα can be assessed using SKOV-3 cells, i.e., human ovarian carcinoma cell line. Briefly, SKOV-3 cells, in which mutant PI3Kα is constitutively active, can be treated with test compounds. Test compounds' ability to inhibit AKT phosphorylation in SKOV-3 cells, therefore, is indicative of selective inhibition of PI3Kα. Thus, by monitoring the reduction of phospho-AKT in SKOV-3 cells (using for example, phospho-AKT antibodies), a compound's potential efficacy in selectively inhibiting PI3Kα can be assessed.
Certain compounds provided herein (e.g., Compounds I-21, I-86, I-87, I-91, and III-13) were tested in SKOV-3 cell model using procedures as described above.

Balb/c splenic B cells = assay: B cell activation and proliferation assay (Alamar Blue); format: cell-based; conditions: Mus musculus, 'Less than 100 nM'
Outline: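 Balb/c splenic B cells (Ficoll, then MACS purification; 50,000/well) were preincubated 30 min with compound at 0.2% final DMSO. They were then stimulated 72 h at 37 °C with a cocktail of 10 μg/ml LPS, or 5 μg/ml anti-mouse F(ab′)2 plus 2 ng/ml mouse IL4. Alamar Blue was read after 5 h at 560Ex/590Em, giving IC50 or EC50.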

PI3Kα = target: T1, PI3Kα (Homo sapiens, UniProt P42336); assay: PI3 Kinase HTRF assay, PI3Kα; format: biochemical; conditions: 10 μM PIP2, 10 μM ATP; 'Greater than 10 μM' and 'Greater than 1 μM to 10 μM'; read-out: PI3K α IC50
T1 construct: purchased Millipore Corporation 14-602-K
Outline: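 Recombinant PI3K converts 10 μM PIP2 with 10 μM ATP, 1 h at room temperature after 15 min compound preincubation, 2% DMSO. PIP3 detected by competitive HTRF with GRP1 PH domain; IC50 by nonlinear regression over 12 points, 20 μM to 0.1 nM.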

[5] = PBS pH 7.4, 37° C., 24 hours; cited from earlier work
B6.Sle1z.Sle3z model = conditions: cited from earlier work
[6] = test system: p190 transduced leukemic cells in mice; conditions: about 70 mg/kg twice daily; cited from earlier work
[7] = control compounds, 5 μM; cited from earlier work
NZB/W F1 mice = conditions: prophylactic and therapeutic model; cited from earlier work
[8] = RAW264.7, range with units in value, read-out: IC50 for phospho-AKT, RAW 264.7 cell model
[9] = SK-OV-3, read-out: IC50 for phospho-AKT, SKOV-3 cell model
[10] = RAW264.7, read-out: IC50 for phospho-AKT, RAW 264.7 cell model

PI3Kβ, sequence (Q8BTI9 whole entry, the tested form may be a part): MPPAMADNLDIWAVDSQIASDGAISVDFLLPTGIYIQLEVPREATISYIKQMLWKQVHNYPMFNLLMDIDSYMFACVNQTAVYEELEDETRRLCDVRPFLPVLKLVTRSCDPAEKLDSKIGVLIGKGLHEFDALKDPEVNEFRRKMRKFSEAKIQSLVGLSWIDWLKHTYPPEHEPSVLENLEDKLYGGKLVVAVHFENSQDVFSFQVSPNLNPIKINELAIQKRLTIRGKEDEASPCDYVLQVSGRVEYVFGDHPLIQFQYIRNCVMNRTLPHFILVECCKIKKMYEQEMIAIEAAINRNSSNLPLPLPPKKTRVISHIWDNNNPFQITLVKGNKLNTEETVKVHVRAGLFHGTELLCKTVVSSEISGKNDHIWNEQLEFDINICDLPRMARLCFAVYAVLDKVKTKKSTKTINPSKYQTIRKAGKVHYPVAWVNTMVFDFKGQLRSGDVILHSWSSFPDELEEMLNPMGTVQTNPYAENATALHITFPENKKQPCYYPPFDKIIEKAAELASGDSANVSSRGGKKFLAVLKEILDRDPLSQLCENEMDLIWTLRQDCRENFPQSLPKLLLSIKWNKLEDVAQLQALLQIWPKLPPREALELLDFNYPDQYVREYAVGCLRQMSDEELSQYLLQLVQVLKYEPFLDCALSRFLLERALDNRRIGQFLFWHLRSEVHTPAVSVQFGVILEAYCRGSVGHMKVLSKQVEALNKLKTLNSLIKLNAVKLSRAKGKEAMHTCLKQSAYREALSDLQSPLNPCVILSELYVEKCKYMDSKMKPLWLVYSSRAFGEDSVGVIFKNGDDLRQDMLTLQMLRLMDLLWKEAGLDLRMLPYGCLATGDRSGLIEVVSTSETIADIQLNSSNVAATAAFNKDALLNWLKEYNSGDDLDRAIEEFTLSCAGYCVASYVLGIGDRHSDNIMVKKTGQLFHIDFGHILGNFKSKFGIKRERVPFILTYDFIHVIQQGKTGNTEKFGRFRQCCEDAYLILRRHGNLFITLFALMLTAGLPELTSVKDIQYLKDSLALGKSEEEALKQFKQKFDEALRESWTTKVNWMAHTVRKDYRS
T1 sequence (P42336 whole entry): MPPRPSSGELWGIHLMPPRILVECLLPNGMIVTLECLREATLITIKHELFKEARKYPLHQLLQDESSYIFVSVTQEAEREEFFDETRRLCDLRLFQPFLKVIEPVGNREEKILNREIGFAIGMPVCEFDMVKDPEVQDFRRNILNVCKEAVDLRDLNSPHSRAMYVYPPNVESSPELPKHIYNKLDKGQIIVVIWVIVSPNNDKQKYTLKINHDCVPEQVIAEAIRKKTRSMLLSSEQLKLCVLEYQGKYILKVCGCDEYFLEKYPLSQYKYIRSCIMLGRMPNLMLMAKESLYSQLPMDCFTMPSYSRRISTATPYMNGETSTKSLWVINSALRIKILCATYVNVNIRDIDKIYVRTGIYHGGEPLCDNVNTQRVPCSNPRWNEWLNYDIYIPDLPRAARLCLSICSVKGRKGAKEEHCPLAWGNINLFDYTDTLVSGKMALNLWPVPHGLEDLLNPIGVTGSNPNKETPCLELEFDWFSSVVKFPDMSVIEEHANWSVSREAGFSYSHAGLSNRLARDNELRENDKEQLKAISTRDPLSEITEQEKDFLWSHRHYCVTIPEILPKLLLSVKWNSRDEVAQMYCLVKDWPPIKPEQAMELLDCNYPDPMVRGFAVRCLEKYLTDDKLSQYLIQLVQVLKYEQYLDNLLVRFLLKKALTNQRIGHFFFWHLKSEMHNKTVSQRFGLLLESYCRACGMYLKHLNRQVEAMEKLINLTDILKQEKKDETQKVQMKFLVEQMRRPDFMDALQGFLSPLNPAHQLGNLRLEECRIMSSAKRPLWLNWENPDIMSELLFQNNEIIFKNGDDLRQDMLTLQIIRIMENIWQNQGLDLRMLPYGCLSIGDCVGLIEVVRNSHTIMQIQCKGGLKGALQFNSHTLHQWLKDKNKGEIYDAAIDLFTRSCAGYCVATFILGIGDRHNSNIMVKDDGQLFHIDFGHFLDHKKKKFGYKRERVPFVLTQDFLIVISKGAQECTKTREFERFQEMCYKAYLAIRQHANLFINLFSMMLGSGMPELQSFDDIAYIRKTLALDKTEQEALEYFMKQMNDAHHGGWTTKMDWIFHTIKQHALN
T1 sequence (P27986 whole entry partner): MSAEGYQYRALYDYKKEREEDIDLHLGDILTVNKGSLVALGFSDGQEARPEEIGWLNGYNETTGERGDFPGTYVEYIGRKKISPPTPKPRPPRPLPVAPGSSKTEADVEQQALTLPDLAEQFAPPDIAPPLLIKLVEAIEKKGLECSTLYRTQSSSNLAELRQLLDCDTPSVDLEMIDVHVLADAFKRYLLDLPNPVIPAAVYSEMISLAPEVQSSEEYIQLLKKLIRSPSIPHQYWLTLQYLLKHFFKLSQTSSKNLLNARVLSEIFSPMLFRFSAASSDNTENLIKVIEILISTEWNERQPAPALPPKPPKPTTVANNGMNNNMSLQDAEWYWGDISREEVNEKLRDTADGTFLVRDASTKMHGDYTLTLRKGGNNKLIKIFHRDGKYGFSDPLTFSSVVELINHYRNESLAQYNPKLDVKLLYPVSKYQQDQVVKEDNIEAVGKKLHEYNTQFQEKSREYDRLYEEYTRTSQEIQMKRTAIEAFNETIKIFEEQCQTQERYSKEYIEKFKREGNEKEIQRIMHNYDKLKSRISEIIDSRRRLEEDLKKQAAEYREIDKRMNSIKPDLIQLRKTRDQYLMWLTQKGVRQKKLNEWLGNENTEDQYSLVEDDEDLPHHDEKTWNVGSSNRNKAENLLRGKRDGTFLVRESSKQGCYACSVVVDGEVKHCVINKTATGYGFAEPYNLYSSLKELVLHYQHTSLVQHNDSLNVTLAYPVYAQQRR

Row | IC50 [1] [µM] | IC50 [2] [µM] | IC50 (PI3Kβ) [µM] | IC50 [4, 9] [µM] | IC50 (PI3Kα) [µM] | SMILES | EC50 (Balb/c splenic B cells) [µM] | further results
1 | < 0.1 | 1 to 10 | 1 to 10 | 1 to 10 | 1 to 10 | C[C@H](Nc1ncnc2[nH]cnc12)c1cc2cccc(C(F)(F)F)c2c(=O)n1-c1cccc(F)c1 [III-13] | < 0.1 | IC50 [3, 8]: 0.1 to 1 µM
2 | – | – | – | – | – | O=C(O)CCCc1ccc(N(CCCl)CCCl)cc1 [chlorambucil] | – | chemical stability [5]: largely hydrolyzed over the course of 24 hours
3 | – | – | – | – | – | CO[C@H]1C[C@@H]2CC[C@@H](C)[C@@](O)(O2)C(=O)C(=O)N2CCCC[C@H]2C(=O)O[C@H]([C@H](C)C[C@@H]2CC[C@@H](OCCO)[C@H](OC)C2)CC(=O)[C@H](C)/C=C(\C)[C@@H](O)[C@@H](OC)C(=O)[C@H](C)C[C@H](C)/C=C/C=C/C=C/1C [RAD001, everolimus] | – | lupus symptoms (B6.Sle1z.Sle3z model): ameliorate lupus symptoms
4 | < 0.1 | 1 to 10 | > 10 | 1 to 10 | 1 to 10 | C[C@H](Nc1ncnc2cccnc12)c1cc2cccc(-c3cnn(C)c3)c2c(=O)n1-c1ccccc1 [Compound I-21] | < 0.1 | IC50 [3, 8]: 0.1 to 1 µM
5 | – | – | – | – | – | Cc1ccc(NC(=O)c2ccc(CN3CCN(C)CC3)cc2)cc1Nc1nccc(-c2cccnc2)n1 [imatinib] | – | leukemogenesis [6]: delay but not cure leukemogenesis
6 | – | – | – | – | – | CCCOc1cc(N)ccc1C(=O)OCCN(CC)CC [propoxycaine] | – | plasma stability [7]: low plasma stability
7 | < 0.1 | 1 to 10 | > 10 | 1 to 10 | 1 to 10 | COc1ncc(-c2cccc3nc([C@H](C)Nc4nc(N)nc5cccnc45)n(-c4ccccc4)c(=O)c23)cn1 [Compound I-86] | < 0.1 | IC50 [3, 10]: < 0.1 µM
8 | < 0.1 | 1 to 10 | > 10 | – | 1 to 10 | C[C@H](Nc1nc(N)nc2cccnc12)c1nc2cccc(-c3cnn(C)c3)c2c(=O)n1-c1ccccc1 [Compound I-87] | < 0.1 | IC50 [3, 10]: < 0.1 µM; IC50 ([4]; SK-OV-3, range with units in value, read-out: IC50 for phospho-AKT, SKOV-3 cell model): 0.1 to 1 µM
9 | – | – | – | – | – | CC(C)[N+](C)(CCOC(=O)C1c2ccccc2Oc2ccccc21)C(C)C [propantheline] | – | plasma stability [7]: intermediate plasma stability
10 | < 0.1 | 1 to 10 | > 10 | 1 to 10 | 1 to 10 | Cc1ncc(-c2cccc3nc([C@H](C)Nc4nc(N)nc5cccnc45)n(-c4ccccc4)c(=O)c23)cn1 [Compound I-91, (S)-2-(1-((2-aminopyrido[3,2-d]pyrimidin-4-yl)amino)ethyl)-5-(2-methylpyrimidin-5-yl)-3-phenylquinazolin-4(3H)-one] | < 0.1 | IC50 [3, 10]: < 0.1 µM
11 | – | – | – | – | – | CC(C)C[C@H](NC(=O)[C@H](Cc1ccccc1)NC(=O)c1cnccn1)B(O)O [Bortezimib, bortezomib] | – | disease in the NZB/W model (NZB/W F1 mice): effective at blocking disease in the NZB/W model
